Measurements: patent US4649145A, “Thiazole derivatives” (Hoechst UK Limited, priority 1982, dated 1987)

What follows are molecules tested on gastric acid secretion in the perfused rat stomach (assay: antisecretory activity in the perfused rat stomach (inhibition of histamine- or pentagastrin-stimulated gastric acid secretion)). Settings: Rattus norvegicus, iv, read-out: ID50 (amount of compound required to inhibit the stimulated secretion by 50%).
Format: in vivo
Description: Compounds of this invention were tested for antisecretory activity in the perfused rat stomach. The method of Ghosh and Schild, Brit. […] J. […] After the secretion plateau was reached, the test compound was administered i.v. and the amount of compound required to inhibit the stimulated secretion by 50% was determined.
`CN/C(=N/CCSCc1nc[nH]c1C)NC#N` [Cimetidine, N--cyanoN'--methylN"--{2[(4methyl-5-imidazolyl)methyl-thio]ethyl}guanidin, reference compound] gave an ED50 of 2.5 mg/kg.

Same assay, conditions: iv; perfused rat stomach; i.v.; acid secretion stimulated by infusing either histamine or pentagastrin at a constant rate; read-out: ID50 (amount of compound required to inhibit the stimulated secretion by 50%)
`NC(N)=Nc1nc(CSCCNC2=NC(=O)CN2)cs1` [Compound 64] gave an ED50 of 0.45 mg/kg. With `CC1NC(NCCSCc2csc(N=C(N)N)n2)=NC1=O` (centres unmarked) [Compound 65] the ED50 was 0.7 mg/kg. Work on `CCCCC1NC(NCCSCc2csc(N=C(N)N)n2)=NC1=O` (centres unmarked) [Compound 69] yielded an ED50 of 0.15 mg/kg. Work on `CCC(C)C1NC(NCCSCc2csc(N=C(N)N)n2)=NC1=O` (centres unmarked) [Compound 70] yielded an ED50 of 1.5 mg/kg. For `CC(C)CC1NC(NCCSCc2csc(N=C(N)N)n2)=NC1=O` (centres unmarked) [Compound 71], the ED50 was 0.2 mg/kg. In the case of `CCCCCCC1NC(NCCSCc2csc(N=C(N)N)n2)=NC1=O` (centres unmarked) [Compound 72], the ED50 was 0.16 mg/kg. `NC(N)=Nc1nc(CSCCNC2=NC(=O)C(Cc3ccccc3)N2)cs1` (centres unmarked) [Compound 74] gave an ED50 of 2.5 mg/kg. `NC(N)=Nc1nc(CSCCNC2=NC(=O)C(c3ccccc3)(c3ccccc3)N2)cs1` [Compound 77] was tested, and the ED50 was 0.5 mg/kg. `CC1(C)NC(NCCSCc2csc(N=C(N)N)n2)=NC1=O` [Compound 78] showed an ED50 of 1 mg/kg. For `NC(N)=Nc1nc(CSCCNC2=NC(=O)C(=Cc3ccccc3)N2)cs1` [Compound 80], the ED50 was 0.5 mg/kg. `COc1ccc(C=C2NC(NCCSCc3csc(N=C(N)N)n3)=NC2=O)cc1` [Compound 81] gave an ED50 of 1.2 mg/kg. `NC(N)=Nc1nc(CSCCNC2=NC(=O)C(=Cc3ccc([N+](=O)[O-])cc3)N2)cs1` [Compound 82] was tested, and the ED50 was 0.6 mg/kg. Work on `NC(N)=Nc1nc(CSCCNC2=NC(=O)C(=Cc3ccc(C(F)(F)F)cc3)N2)cs1` [Compound 83] yielded an ED50 of 3.5 mg/kg. Molecule `NC(N)=Nc1nc(CSCCNC2=NC(=O)C(=Cc3ccco3)N2)cs1` [Compound 85] has an ED50 of 0.2 mg/kg. With `NC(N)=Nc1nc(CSCCNC2=NC(=O)C(=CC=Cc3ccco3)N2)cs1` [Compound 86] the ED50 was 0.02 mg/kg. `CC=C1NC(NCCSCc2csc(N=C(N)N)n2)=NC1=O` [Compound 87] showed an ED50 of 0.1 mg/kg. For `CCCC=C1NC(NCCSCc2csc(N=C(N)N)n2)=NC1=O` [Compound 88], the ED50 was 0.1 mg/kg. Work on `CCCCCC=C1NC(NCCSCc2csc(N=C(N)N)n2)=NC1=O` [Compound 89] yielded an ED50 of 0.15 mg/kg. `NC(N)=Nc1nc(CSCCNC2=NC(=O)C(=C3CCCCC3)N2)cs1` [Compound 90] gave an ED50 of 0.18 mg/kg. `CC(C)=C1NC(NCCSCc2csc(N=C(N)N)n2)=NC1=O` [Compound 91] showed an ED50 of 0.18 mg/kg. `CC(C)C=C1NC(NCCSCc2csc(N=C(N)N)n2)=NC1=O` [Compound 92] gave an ED50 of 0.07 mg/kg. Work on `CCC(C)C=C1NC(NCCSCc2csc(N=C(N)N)n2)=NC1=O` (centres unmarked) [Compound 93] yielded an ED50 of 0.07 mg/kg. `CCCCC=C1NC(NCCSCc2csc(N=C(N)N)n2)=NC1=O` [Compound 94] was tested, and the ED50 was 0.06 mg/kg. Work on `NC(N)=Nc1nc(CSCCNC2=NC(=O)C(=Cc3cccc(Oc4ccccc4)c3)N2)cs1` [Compound 96, 2[2-[(2-Guanidino-4-thiazolyl)]methylthio]ethylamino-5-(3-phenoxybenzylidenyl)-imidazolidin-4-one] yielded an ED50 of 10 mg/kg. `NC(N)=Nc1nc(CSCCNC2=NC(=O)C(=Cc3cccnc3)N2)cs1` [Compound 97] showed an ED50 of 0.5 mg/kg.
